The numbers were not newly measured in patent US20200319191A1, “MOLECULAR PROFILING FOR CANCER” (Caris MPI, Inc., priority 2015, published 2020), which cites them from elsewhere.

Like-named read-outs stand apart in the source and are kept apart here.

For the series the following is noted: for benefit by PIK3CA status: PIK3CA exon 20 mutations; for sensitivity by EGFRvIII expression: preliminary studies; for Evid. Level, ER Positive (IHC) / Bene. Level, ER Positive (IHC): Hormonal Agents; for Bene. Level, PGP Positive (IHC) / Evid. Level, PGP Positive (IHC): Anthracyclines.

For the compound `CO[C@H]1C[C@@H]2CC[C@@H](C)[C@@](O)(O2)C(=O)C(=O)N2CCCC[C@H]2C(=O)O[C@H]([C@H](C)C[C@@H]2CC[C@@H](OC(=O)C(C)(CO)CO)[C@H](OC)C2)CC(=O)[C@H](C)/C=C(\C)[C@@H](O)[C@@H](OC)C(=O)[C@H](C)C[C@H](C)/C=C/C=C/C=C/1C` [temsirolimus], the “benefit by PIK3CA status” value is “associated with benefit from mTOR inhibitors (everolimus, temsirolimus). Evidence”.

`CC(=O)O[C@@]12CO[C@@H]1C[C@H](O)[C@@]1(C)C(=O)[C@H](O)C3=C(C)[C@@H](OC(=O)[C@H](O)[C@@H](NC(=O)OC(C)(C)C)c4ccccc4)C[C@@](O)([C@@H](OC(=O)c4ccccc4)[C@H]21)C3(C)C` [docetaxel]: the “PGP Positive (IHC) Bene. Level” value is recorded as 1 (IHC positive: TLE3 F, TUBB3 F, PGP F); 2 (IHC positive: TLE3 F, TUBB3 F, PGP T); 1 (IHC positive: TLE3 F, TUBB3 No Data, PGP F); 3 (IHC positive: TLE3 F, TUBB3 No Data, PGP T); 1 (IHC positive: TLE3 F, TUBB3 T, PGP F); 3 (IHC positive: TLE3 F, TUBB3 T, PGP T). Further, the “PGP Positive (IHC) Bene. Level” value by setting is: (IHC positive: TLE3 No Data, TUBB3 F, PGP F) 1; (IHC positive: TLE3 No Data, TUBB3 F, PGP T) 2; (IHC positive: TLE3 No Data, TUBB3 No Data, PGP F) 1; (IHC positive: TLE3 No Data, TUBB3 No Data, PGP T) 3; (IHC positive: TLE3 No Data, TUBB3 T, PGP F) 1; (IHC positive: TLE3 No Data, TUBB3 T, PGP T) 3. In addition, the “PGP Positive (IHC) Bene. Level” value (IHC positive: TLE3 T, TUBB3 F, PGP F) is on record as 1; the “PGP Positive (IHC) Bene. Level” value (IHC positive: TLE3 T, TUBB3 F, PGP T) was 2; the “PGP Positive (IHC) Bene. Level” value (IHC positive: TLE3 T, TUBB3 No Data, PGP F) was 1; the “PGP Positive (IHC) Bene. Level” value (IHC positive: TLE3 T, TUBB3 No Data, PGP T) was 2; the “PGP Positive (IHC) Bene. Level” value (IHC positive: TLE3 T, TUBB3 T, PGP F) is listed as 1; the “PGP Positive (IHC) Bene. Level” value (IHC positive: TLE3 T, TUBB3 T, PGP T) was 2. Further, the “PGP Positive (IHC) Evid. Level” value (taxanes rule, Ref. No. 28) is listed as 3.

With `CCCS(=O)(=O)Nc1ccc(F)c(C(=O)c2c[nH]c3ncc(-c4ccc(Cl)cc4)cc23)c1F` [vemurafenib], under “patients treated with BRAF inhibitor, likely paradoxical activation of the MAPK pathway”, the “tumors that develop in treated patients” value is “cutaneous squamous cell carcinomas and keratoacanthomas that develop in patients treated”.

As for `CO[C@H]1C[C@@H]2CC[C@@H](C)[C@@](O)(O2)C(=O)C(=O)N2CCCC[C@H]2C(=O)O[C@H]([C@H](C)C[C@@H]2CC[C@@H](OCCO)[C@H](OC)C2)CC(=O)[C@H](C)/C=C(\C)[C@@H](O)[C@@H](OC)C(=O)[C@H](C)C[C@H](C)/C=C/C=C/C=C/1C` [everolimus], the “benefit by PIK3CA status” value is “associated with benefit from mTOR inhibitors (everolimus, temsirolimus). Evidence”.

`CCOc1cc2ncc(C#N)c(Nc3ccc(OCc4ccccn4)c(Cl)c3)c2cc1NC(=O)/C=C/CN(C)C` [neratinib]: the “sensitivity by EGFRvIII expression” value was “higher sensitivity to erlotinib and gefitinib, as well as to pan-Her inhibitors including”.

As for `CC(C)(C#N)c1cc(Cn2cncn2)cc(C(C)(C)C#N)c1` [anastrozole], the “Evid. Level, ER Positive (IHC)” value (ER Positive (IHC)=F) is 1. For the setting “ER Positive (IHC)=T”, the “Bene. Level, ER Positive (IHC)” value is reported as 1 and the “Evid. Level, ER Positive (IHC)” value was 1.

With `Nc1ccn([C@@H]2O[C@H](CO)[C@@H](O)C2(F)F)c(=O)n1` [gemcitabine], for the setting “high RRM1 level”, the “resistance by RRM1 level” value is “activity. High RRM1 level is associated with resistance to gemcitabine”.

As for `Cc1cc(Nc2ncc(Cl)c(Nc3ccccc3S(=O)(=O)C(C)C)n2)c(OC(C)C)cc1C1CCNCC1` [ceritinib], under “ALK secondary mutations found in NSCLC”, the “resistance by ALK secondary mutations” value was “mutations found in NSCLC have been associated with acquired resistance to ALK”.

Regarding `C#Cc1cccc(Nc2ncnc3cc(OCCOC)c(OCCOC)cc23)c1` [erlotinib], the “sensitivity by EGFRvIII expression” value was “higher sensitivity to erlotinib and gefitinib, as well as to pan-Her inhibitors including”. Where the note is “T790M in exon 20”, the “response by EGFR secondary mutation” value is “mutation, T790M in exon 20, confers reduced response. Non-small cell lung cancer cancer”. Besides, the “sensitivity by EGFR gain-of-function mutations” value (in-frame deletions in exon 19 or point mutations in exon 21) is “point mutations in exon 21, confer sensitivity to first- and second-generation tyrosine”.

On to `CCc1c2c(nc3ccc(OC(=O)N4CCC(N5CCCCC5)CC4)cc13)-c1cc3c(c(=O)n1C2)COC(=O)[C@]3(O)CC` [irinotecan], for which the “response by TOPOI expression” value (expression of TOPOI) is given as “DNA molecule. Expression of TOPOI has been associated with response to TOPOI”.

Regarding `COc1cccc2c1C(=O)c1c(O)c3c(c(O)c1C2=O)C[C@@](O)(C(=O)CO)C[C@@H]3O[C@H]1C[C@H](N)[C@@H](O)[C@H](C)O1` [epirubicin], for the setting “PGP Positive (IHC)=F”, the “Bene. Level, PGP Positive (IHC)” value is 1 and the “Evid. Level, PGP Positive (IHC)” value is 2. For the same compound, under “PGP Positive (IHC)=T”, the “Bene. Level, PGP Positive (IHC)” value was 2 and the “Evid. Level, PGP Positive (IHC)” value is listed as 2.

On to `CC/C(=C(\c1ccccc1)c1ccc(OCCN(C)C)cc1)c1ccccc1` [tamoxifen], for which the “Evid. Level, ER Positive (IHC)” value (ER Positive (IHC)=F) is listed as 1. Under “ER Positive (IHC)=T”, the “Bene. Level, ER Positive (IHC)” value is listed as 1 and the “Evid. Level, ER Positive (IHC)” value was 1.

`COc1cccc2c1C(=O)c1c(O)c3c(c(O)c1C2=O)C[C@@](O)(C(=O)CO)C[C@@H]3O[C@H]1C[C@H](N)[C@H](O)[C@H](C)O1` [doxorubicin, reference compound]: where the note is “PGP Positive (IHC)=F”, the “Bene. Level, PGP Positive (IHC)” value is 1 and the “Evid. Level, PGP Positive (IHC)” value is 2. Moreover, where the note is “PGP Positive (IHC)=T”, the “Bene. Level, PGP Positive (IHC)” value is 2 and the “Evid. Level, PGP Positive (IHC)” value is on record as 2.
